Test results reported in US20220193063A1, “METABOLITES OF GLP1R AGONISTS” (Pfizer Inc., priority 2020, published 2022).

How the values were obtained:
[1] = system: Male CD-1 mouse hepatocytes; assay: In vitro metabolism of Compound 1 in mouse cryopreserved hepatocytes; type: in vitro ADME; details: HPLC/UV/MS; for metabolite of Compound 1 observed in mouse hepatocyte incubations: 10 μM Compound 1, 7.5×10^5 cells/mL, 1 and 4 hrs composite sample; for Relative abundance of metabolite of Compound 1, Mouse: mouse cryopreserved hepatocytes; on Relative abundance of metabolite of Compound 1, Mouse: key: ND Not detected; trace: Trace: observed by HPLC/MS measurements only; + Minor as assessed by HPLC/UV measurements; ++ moderate as assessed by HPLC/UV measurements; +++ major as assessed by HPLC/UV measurements; * m/z 593 and m/z 505 co-eluted in rabbit hepatocytes; ** m/z 591c and m/z 593 were merged in human hepatocytes and Hepatopack; *** m/z 607 and m/z 751b were merged in rabbit hepatocytes
Experimental: (§1) Male CD-1 mouse hepatocytes (lot YHL), male Wistar-Han rat hepatocytes (Celsis; product number: M000065; lot: SLA), female New Zealand rabbit hepatocytes (lot 1510147), male cryopreserved cynomolgus monkey hepatocytes (Celsis; product number: M00305; lot: DNB) and mixed-gender cryopreserved human hepatocytes (Bioreclamation; product number: S01988; lot: DCM) were obtained for the hepatocyte in-vitro assessments.
(§2) At time 0 hrs 550 μL aliquots were removed from incubations and quenched with 5 volumes of ACN containing 0.1% formic acid. At 1 and 4 hrs, 275 μL aliquots were removed and quenched as above; these were combined in the same tube to prepare a composite sample. For all hepatocyte experiments, samples were processed by centrifugation at 1900×g for 5 minutes, and then the supernatant was transferred to clean glass tubes and evaporated to dryness under a stream of N2 using a Turbovap at 37° C. Sample residues were reconstituted in mobile phase prior to analysis by HPLC/UV/MS^n.
(§3) Samples were analyzed by HPLC/UV/MS^n using a Thermo Orbitrap Elite mass spectrometer in conjunction with a Thermo Open Accela UHPLC system. A 3.0×150 mm, 2.5 μm Acquity CSH C18 HPLC column (Waters) was heated to 45° C. for separation of analytes. The mobile phase was a gradient of A): water containing 0.1% formic acid, and B): acetonitrile. The flow rate was 450 μL/min, and the following gradient program was utilized: […]
(§4) UV absorbance was monitored with a photo-diode array detector from 220-450 nm. The mass spectrometer was operated in positive-ion mode with a HESI ion source at a potential of 3.0 kV, and capillary and source heater temperatures of 380 and 300° C., respectively. Sheath, auxiliary, and sweep gas flows were set to 45, 10, and 2 units, respectively. Full scan mass spectra were acquired over the range 120-1200 m/z at a resolving power of 30,000 (specified at m/z 400). Data-dependent MS^n spectra were acquired in an automated fashion at 15,000 resolving power using CID and HCD fragmentation with normalized collision energy settings of 28 and 65 V, respectively.
(§5) Metabolites were characterized by comparisons of mass spectral fragmentation patterns with that of a Compound 1 standard. All HPLC/UV/MS^n data were processed using Xcalibur v. 2.2, and integrated UV peak areas were subjected to weighted UV binning procedures utilizing an Excel template.

[2] = system: male Wistar-Han rat hepatocytes; assay: In vitro metabolism of Compound 1 in rat cryopreserved hepatocytes; type: in vitro ADME; details: HPLC/UV/MS; for metabolite of Compound 1 observed in rat hepatocyte incubations: 10 μM Compound 1, 7.5×10^5 cells/mL, 1 and 4 hrs composite sample; for Relative abundance of metabolite of Compound 1, Rat: rat cryopreserved hepatocytes; on Relative abundance of metabolite of Compound 1, Rat: key: ND Not detected; trace: Trace: observed by HPLC/MS measurements only; + Minor as assessed by HPLC/UV measurements; ++ moderate as assessed by HPLC/UV measurements; +++ major as assessed by HPLC/UV measurements; * m/z 593 and m/z 505 co-eluted in rabbit hepatocytes; ** m/z 591c and m/z 593 were merged in human hepatocytes and Hepatopack; *** m/z 607 and m/z 751b were merged in rabbit hepatocytes
Experimental: as §1, §2, §3, §4, §5

[3] = system: female New Zealand rabbit hepatocytes; assay: In vitro metabolism of Compound 1 in rabbit cryopreserved hepatocytes; type: in vitro ADME; details: HPLC/UV/MS; for metabolite of Compound 1 observed in rabbit hepatocyte incubations: 10 μM Compound 1, 7.5×10^5 cells/mL, 1 and 4 hrs composite sample; for Relative abundance of metabolite of Compound 1, Rabbit: rabbit cryopreserved hepatocytes; on Relative abundance of metabolite of Compound 1, Rabbit: key: ND Not detected; trace: Trace: observed by HPLC/MS measurements only; + Minor as assessed by HPLC/UV measurements; ++ moderate as assessed by HPLC/UV measurements; +++ major as assessed by HPLC/UV measurements; * m/z 593 and m/z 505 co-eluted in rabbit hepatocytes; ** m/z 591c and m/z 593 were merged in human hepatocytes and Hepatopack; *** m/z 607 and m/z 751b were merged in rabbit hepatocytes
Experimental: as §1, §2, §3, §4, §5

[4] = system: male cryopreserved cynomolgus monkey hepatocytes; assay: In vitro metabolism of Compound 1 in monkey cryopreserved hepatocytes; type: in vitro ADME; details: HPLC/UV/MS; for metabolite of Compound 1 observed in monkey hepatocyte incubations: 10 μM Compound 1, 7.5×10^5 cells/mL, 1 and 4 hrs composite sample; for Relative abundance of metabolite of Compound 1, Monkey: monkey cryopreserved hepatocytes
Experimental: as §1, §2, §3, §4, §5

[5] = system: mixed-gender cryopreserved human hepatocytes; assay: In vitro metabolism of Compound 1 in human cryopreserved hepatocytes; type: in vitro ADME; details: HPLC/UV/MS; for metabolite of Compound 1 observed in human hepatocyte incubations: 10 μM Compound 1, 7.5×10^5 cells/mL, 1 and 4 hrs composite sample; for Relative abundance of metabolite of Compound 1, Human: human cryopreserved hepatocytes
Experimental: as §1, §2, §3, §4, §5

[6] = system: human co-cultured hepatocytes (Hepatopack); assay: In vitro metabolism of Compound 1 in human micropatterned co-cultured hepatocytes (Hepatopack); type: in vitro ADME; details: human co-cultured hepatocytes (Hepatopack); HPLC/UV/MS; further: key: ND Not detected; trace: Trace: observed by HPLC/MS measurements only; + Minor as assessed by HPLC/UV measurements; ++ moderate as assessed by HPLC/UV measurements; +++ major as assessed by HPLC/UV measurements; * m/z 593 and m/z 505 co-eluted in rabbit hepatocytes; ** m/z 591c and m/z 593 were merged in human hepatocytes and Hepatopack; *** m/z 607 and m/z 751b were merged in rabbit hepatocytes
From the text: Micro-patterned co-cultured (MPCC) hepatocyte 24-well plates containing human donors (16 wells each) were provided by Ascendance Biotechnology (formerly Hepregen Corp. (Medford, Mass.). [see Wang W W W, Khetani S R, Krzyzewski S, et al. Assessment of a Micropatterned Hepatocyte Coculture System to Generate Major Human Excretory and Circulating Drug Metabolites. Drug Metab Dispos 2010; 38(10):1900-51 The MPCCs were created at Ascendance Biotechnology and maintained in serum containing medium for 5-6 days to allow for stabilization of the co-cultures prior to shipment. A mixed-gender cryopreserved pool of 10 human donors (X008001-P; lot YFA) was used to seed the plates and was purchased from BioreclamationlVT (Westbury, N.Y.). MPCC hepatocytes are plated with fibroblasts in a 1:3 ratio with ˜25,000 hepatocytes/well in a 24-well plate. 24-Well MPCC plates were shipped to Pfizer, fresh medium (400 μL/well) was applied and cultures were kept at 37° C. with […] and 95% relative humidity for two days. Micropatterned co-cultures containing pooled hepatocytes were allowed 7 days to fully stabilize with respect to liver-specific functions. […] At respective time points (0, 2, and 7 days), the culture medium was removed and mixed with 4 volumes of ACN, then stored frozen at −40° C. until samples could be analyzed. Samples were subsequently processed by the addition of 2.5 mL of 1:1 ACN:MeOH containing 0.1% formic acid. After vortexing, the samples were centrifuged at 1900×g for 5 min, then the supernatant was transferred to 15 mL conical tubes and evaporated under N2 using a Turbovap set at 37° C. The residues were reconstituted in mobile phase (5:95 v:v ACN:0.1% aqueous formic acid) prior to analysis by HPLC/UV/MS^n.
as §3
as §4, with “Data-dependent MS^n spectra were acquired in an automated fashion at 15,000 resolving power using CID and HCD fragmentation with normalized collision energy settings of 28 and 65 V, respectively.” left out

[7] = Circulating metabolites of Compound 1 in rat plasma following a 1.0 mg/kg IV bolus dose; type: in vivo; details: 1.0 mg/kg IV bolus dose of Compound 1, pooled plasma 0.033-24 hrs, male rats
Experimental: (§6) Plasma and bile samples were obtained from a bile duct cannulated rat experiment (Study PK-0111) in which a 1.0 mg/kg IV bolus dose was administered to fed male rats (N=3). No control plasma was available from this experiment.
Clin Pharmacol Ther 1981; 29(3):408-13]. The entire volume of each replicate Hamilton pool was combined to create a single pooled sample (576 μL) for analysis.
(§7) Pooled plasma and bile samples were extracted with ACN containing 0.1% formic acid, and after centrifugation at 1900×g, the supernatant was transferred to clean tubes and evaporated under N2 in a Turbovap set at 37° C. Residues were reconstituted in mobile phase (5:95 v:v ACN:0.1% aqueous formic acid) prior to analysis by HPLC/UV/MS^n.
as §3, §4, §5

[8] = Metabolites of Compound 1 in rat bile following a 1.0 mg/kg IV bolus dose (bile duct cannulated rat); type: in vivo; details: 1.0 mg/kg IV bolus dose of Compound 1, pooled bile 0-24 hrs, bile duct cannulated male rats
Experimental: as §6
Bile samples (0-3, 3-7, and 7-24 hrs) from individual animals were pooled in proportion to the amount collect in each interval. Then 0.5 mL of each individual pool was combined to prepare a composite sample for analysis.
as §7, §3, §4, §5

SMILES | metabolite of Compound 1 observed in mouse hepatocyte incubations [1] | Relative abundance of metabolite of Compound 1, Mouse [1] | metabolite of Compound 1 observed in rat hepatocyte incubations [2] | Relative abundance of metabolite of Compound 1, Rat [2] | metabolite of Compound 1 observed in rabbit hepatocyte incubations [3] | Relative abundance of metabolite of Compound 1, Rabbit [3] | metabolite of Compound 1 observed in monkey hepatocyte incubations [4] | Relative abundance of metabolite of Compound 1, Monkey [4] | metabolite of Compound 1 observed in human hepatocyte incubations [5] | Relative abundance of metabolite of Compound 1, Human [5] | Relative abundance of metabolite of Compound 1, Hepatopack [6] | detected in rat plasma [7] | detected in rat plasma ([7]; listed as m/z 331) | detected in rat bile [8] | detected in rat bile ([8]; listed as m/z 331)
C[C@]1(c2ccc(Cl)cn2)Oc2cccc(C3CCNCC3)c2O1 [Metabolite 331] | observed | + | observed | trace | observed | trace | observed | + | observed | + | trace | observed | detected | observed | detected
C[C@]1(c2ccc(Cl)cn2)Oc2cccc(-c3cc[n+](Cc4nc5ccc(C(=O)O)cc5n4C[C@@H]4CCO4)cc3)c2O1 [Metabolite 569] | observed | + | observed | trace | observed | + | observed | trace | observed | + | + |  |  |  | 
C[C@]1(c2ccc(Cl)cn2)Oc2cccc(C3CCN(Cc4nc5ccc(C(=O)O)cc5[nH]4)CC3)c2O1 [Metabolite 505] |  | trace |  | trace |  |  |  |  |  |  |  |  |  |  | 
C[C@]1(c2ccc(Cl)cn2)Oc2cccc(C3CCN(Cc4nc5ccc(C(=O)O)cc5n4CC(O)CCO)CC3)c2O1 (stereo in doubt) [Metabolite 593] | observed |  | observed |  | observed |  | observed |  | observed |  |  |  |  |  | 
C[C@]1(c2ccc(Cl)cn2)Oc2cccc(C3CC[N+]([O-])(Cc4nc5ccc(C(=O)O)cc5n4C[C@@H]4CCO4)CC3)c2O1 (stereo partly shown) [Metabolite 591d] | observed |  | observed |  | observed |  | observed |  | observed |  |  |  |  |  | 
CC1(c2ccc(Cl)cn2)Oc2cccc(C3CCN(Cc4nc5ccc(C(=O)OC6OC(C(=O)O)C(O)C(O)C6O)cc5n4CC4CCO4)CC3)c2O1 (stereo not shown) [Metabolite 751b] |  | ++ |  | + |  | ++ |  | +++ |  | +++ | ++ |  |  |  | 
C[C@]1(c2ccc(Cl)cn2)Oc2cccc(C3CCN(Cc4nc5ccc(C(=O)O)cc5[nH]4)CC3)c2O1 [Metabolite 505, (S)-2-((4-(2-(5-chloropyridin-2-yl)-2-methylbenzo[d][1,3]dioxol-4-yl)piperidin-1-yl)methyl)-1H-benzo[d]imidazole-6-carboxylic acid] | observed |  | observed |  | observed |  |  |  |  |  |  |  |  |  | 
C[C@]1(c2ccc(Cl)cn2)Oc2cccc(C3CCN(Cc4nc5ccc(C(=O)O)cc5n4C[C@@H]4CCO4)CC3)c2O1 [Compound 1, 2-((4-((S)-2-(5-chloropyridin-2-yl)-2-methylbenzo[d][1,3]dioxol-4-yl)piperidin-1-yl)methyl)-1-(((S)-oxetan-2-yl)methyl)-1H-benzo[d]imidazole-6-carboxylic acid] |  |  |  |  |  |  |  |  |  |  |  | detected |  | detected | 
O=C(O)c1ccc2nc(CN3CCC(c4cccc(O)c4O)CC3)n(C[C@@H]3CCO3)c2c1 [Metabolite 438, (S)-2-((4-(2,3-dihydroxyphenyl)piperidin-1-yl)methyl)-1-(oxetan-2-ylmethyl)-1H-benzo[d]imidazole-6-carboxylic acid] |  |  | observed as a trace metabolite |  |  |  | observed as a trace metabolite |  | observed as a trace metabolite |  |  |  |  |  | 
O=C(O)c1ccc2nc(CN3CCC(c4cccc(O)c4O)CC3)n(C[C@@H]3CCO3)c2c1 [Metabolite 438] |  |  |  | trace |  |  |  | trace |  | trace |  |  |  |  | 
